Each structure is given as a SMILES string.

Data on 1 compound can be found in BindingDB's records for doi:10.1158/0008-5472.can-03-3344 (St. Jude Children'S Research Hospital, 2004).

The data set can be described thus: TP_TRANSPORTER: drug resistance(Imatinib mesylate) in BCRP-expressing SaoS2 cells.

`CCc1c2c(nc3ccc(O)cc13)-c1cc3c(c(=O)n1C2)COC(=O)[C@]3(O)CC` [7-ETHYL-10-HYDROXY-CAMPTOTHECIN] showed an IC50 of 176 nM.

By IC50 is commonly meant the concentration that inhibits the measured activity by half. The low end stands for higher potency, the high end for lower potency.
